≈ marks a conversion by molar mass, not a printed value.
What was measured:
Format in all cases: cell-based
[1] = tested on: Microsporum canis (NBRC7863); assay: Antimicrobial activity test, minimum inhibitory concentration (Test Example 5); settings: Sabouraud media, 25° C. for 120 hours
Protocol: Test Example 5: Antimicrobial Activity Test Test Compound: Compound No. 6 Test Microbial Strain: Microsporum Canis (NBRC7863) The strain was cultured in a Sabouraud medium and then suspended in PBS containing Tween80 (1% (V/V)), the resulting suspension was filtered through a cell strainer (φ40 µm), spores were recovered from the filtrate by centrifugation (3500 rpm, 5 minutes) and washed twice with physiological saline, and then a spore suspension was prepared (1 × 10^6 spores/mL). 50 µL of the spore suspension was inoculated into Sabouraud media to which compound No. 6 dissolved in DMSO was added to have various concentrations. After culturing at 25° C. for 120 hours, the presence or absence of microbial growth was investigated, and the minimum inhibitory concentration was determined.

[2] = tested on: Staphylococcus pseudointermedius (JCM 17571); assay: Antimicrobial activity test, minimum bactericidal concentration after 1 minute contact (Test Example 6); settings: JCM17571, S. pseudintermedius JCM 17571, then LB medium 30° C. for 72 hours, read-out: Minimum bactericidal concentration (MBC100)
Protocol: Test Example 6: Antimicrobial Activity test Test Compound: Compound No. 6 Test Microbial Strain: Staphylococcus Pseudointermedius (JCM 17571) The staphylococcus (Staphylococcus pseudointermedius) cultured for 24 hours on a Luria Broth (LB) agar medium plate (peptone, yeast extract, sodium chloride, agar, Invitrogen) was suspended in physiological saline, and a suspension thereof was prepared in such a way as to have an absorbance of 0.025 at 600 nm. Thereto, the test compound dissolved in DMSO was added in such a way as to provide a final concentration of 200, 100, 50, or 25 ppm, and after 1 minute, 10 µL of the suspension and 10 mL of physiological saline were placed in a syringe and stirred, and the syringe was connected to a 37 mm Quality Monitor (manufactured by Pall Corporation) followed by filtration and washing twice with 10 mL of physiological saline. The membrane filter was impregnated as it was with an LB medium and subjected to culturing at 30° C. for 72 hours, the presence or absence of colony growth was investigated, and the minimum bactericidal concentration (MBC100) was determined.

[3] = tested on: Microsporum canis (IFM63627); assay: Antifungal activity test, minimum inhibitory concentration (Test Example 7); settings: Sabouraud medium, 32° C. for 72 hours, read-out: Minimum inhibitory concentration (MIC100)
Protocol: Test Example 7: Antifungal Activity Test
Test Compound: Compound No. 6
Test Microbial Strain: Microsporum Canis (IFM63627)
The antifungal activity was studied by partially modifying the method of Test Example 5. Microsporum canis was cultured at 32° C. for 168 hours in a ⅒ Sabouraud medium to form spores, then 10 mL of physiological saline (Otsuka Normal Saline; containing 9 g of sodium chloride in 1000 mL) was added directly onto the medium, and the surface was rubbed using a disposable loop (type 1 (1 µL)) to recover a spore suspension containing hyphae. The spore suspension containing hyphae was filtered through a cell strainer (φ40 µm). The spores were recovered from the filtrate by centrifugation (3500 rpm, 5 minutes) and washed twice with physiological saline, and then a spore suspension was prepared (1 × 10^7 spores/mL). 10 µL of the spore suspension was inoculated into a Sabouraud medium to which the test compound dissolved in DMSO was added to have a predetermined concentration. Microsporum canis was cultured at 32° C. for 72 hours, then the presence or absence of colony growth was investigated, and the minimum inhibitory concentration (MIC100) was determined.

[4] = tested on: Malassezia pachydermatis (IFM56528 strain); assay: Antimicrobial activity test: colony formation inhibition after 1 minute contact (Test Examples 1 and 2); settings: M. pachydermatis IFM56528, final concentration 500 ppm, then culturing at 32° C. for 72 hours, read-out: Colony formation inhibition rate (%)
Protocol: Test microbial strain: Malassezia pachydermatis (IFM56528 strain, strain obtained from Chiba University) The Malassezia microbe (Malassezia pachydermatis) cultured for 5 to 7 days in a Sabouraud medium (1% peptone, 4% dextrin, 1.5% agar) supplemented with 0.5% of Tween 40 (polyoxyethylene sorbitan monopalmitate: manufactured by Kanto Chemical Co., Inc.) was suspended in physiological saline and a suspension thereof was prepared in such a way as to have an absorbance of 0.25 at 550 nm. […] Colony formation inhibition rate (%) = [(number of colonies in non-agent treated plot - number of colonies in inventive plot)/number of colonies in non-agent treated plot] × 100 Test compound: Compound No. 1 (final concentration of 500 ppm) Test microbial strains: Malassezia pachydermatis (IFM56528 strain), M. furfur (IMF55951 strain), M. sympodialis (IMF48588 strain), M. globosa (IMF51946 strain), and M. restricta (IMF55992 strain) The colony formation inhibition rate for each of the test strains was determined by the same method as in Test Example 1.

[5] = tested on: Microsporum canis (TIMM20080 strain); assay: Antimicrobial activity test, minimum inhibitory concentration (Test Example 4); settings: Sabouraud media, 28° C. for 72 hours
Protocol: Test Example 4: Antimicrobial Activity Test Test Compound: Compound No. 1
Test Microbial Strain: Microsporum Canis (TIMM20080 Strain)
The microbial strain was cultured in a Sabouraud medium containing 500 µg/mL of cycloheximide and 50 µg/mL of chloramphenicol at 28° C. for 8 days, then spores were collected in physiological saline containing Tween80 (0.05% (v/v)), this was filtered through a cell strainer (φ40 µm), the spores were recovered from the filtrate by centrifugation (3500 rpm, 5 minutes) and washed twice with physiological saline, and then a spore suspension was prepared (1 × 10^7 spores/mL). 10 µL of the spore suspension was inoculated into Sabouraud media to which compound No. 1 dissolved in DMSO was added to have various concentrations. After culturing at 28° C. for 72 hours, the amount of microbial growth was investigated, and the minimum inhibitory concentration was determined.

Row | MIC [1] [µg/mL] | MIC [3] [µg/mL] | MIC [5] [µg/mL] | Structure (SMILES) | MBC [2] [µg/mL] | inhibition at 500 ppm [4] [%]
1 | 125 (≈ 496 µM) | 5 (≈ 19.8 µM) |  | Cc1ccc(-c2nc(C#N)[nH]c2Cl)cc1Cl [Compound No. 6, 5-chloro-4-(3-chloro-4-methylphenyl)-1H-imidazole-2-carbonitrile] | 50 (≈ 198 µM) | 
2 |  |  | 10 (≈ 45.9 µM) | Cc1ccc(-c2nc(C#N)[nH]c2Cl)cc1 [Compound No. 1, 5-Chloro-4-(4-methylphenyl)-1H-imidazole-2-carbonitrile] |  | 100
